Test results: patent US10054581B1, “Inhibitors of notch signaling pathway and use thereof in treatment of cancers” (Ecole Polytechnique Federale de Lausanne (EPFL), priority 2011, dated 2018)
“Also recorded” adds a separate entry of the source.

System: Notch signalling via DL4:N1 ligand-receptor pair (Notch1)
Assay: DL4:N1 coculture assay, Notch driven luciferase reporter
Type: cell-based, mouse
Conditions: DL4-N1 coculture assay; for Notch inhibitory activity of derivatives compared to parental compound I3: FIG. 10
Excerpt: Mouse DL4-IRES dsRED cDNA was cloned into a pENTR1 vector (Invitrogen®) and finally shuttled into a destination lentivirus vector using Gateway cloning strategy (Invitrogen). A Phosphoglycerate kinase (PGK) promoter drove the expression of DL4 protein. DL4-lentiviral particles were produced in 293T cells by cotransfection of DL4-lentivirus vector, Gag/pol expression plasmid and plasmid encoding for viral envelope proteins. To overexpress Notch1 protein, mouse full length Notch1 cDNA was a cloned in a pCDNA3.1-IRES-puromycin vector. Notch1 cDNA was cloned upstream of IRES-puromycin between HindIII and XbaI restriction sites. A CMV promoter controlled the expression of Notch1 protein.
To measure the Notch signalling activation, CSL/RBP-jk consensus DNA binding sequences were cloned in a head to tail conformation in the pGL4 luciferase vector (Promega), thus named 12×CSL/RBP-jjk luciferase vector. In order to determine the Notch pathway activation in chemical compound screening assay, 12×CSL/RBP-jk consensus DNA binding sequences were cloned into pGL4.26.luciferase vector (Promega). As an internal control for transfection efficiency, SV40 Renilla vector was used (Promega).
In order to generate DL4 and N1 stable cell lines, HeLa cell were bought from ATCC (catalog # CCL-2). To generate DL4 stable lines, cells were transduced with DL4-lentiviral particles. DL4 stable clones were selected using puromycin. High DL4 expressing clones were sorted using antibodies against DL4 with Fluorescence activated cell sorting (FACS). To generate N1 stable line, cell were transfected with a pCDNA3.1+(Invitrogen) plasmid containing mouse full length Notch1 under the control of CMV promoter. To select for Notch1 expressing clones, an IRES puromycin cassette was cloned downstream of Notch1 cDNA. HeLa cells expressing high levels of Notch1 were enriched by FACS using anti-Notch1 antibodies. DL4- and N1-HeLa cells were cultured in DMEM (GIBCO, Invitrogen), 10% FCS and 10 ug/ml of puromycin (Sigma).
For chemical library screen, the coculture assay was performed as follows. N1-HeLa cells were cotransfected in 10 cm tissue culture dishes with 16 μg of pGL4.26. 12×CSL.luciferase vector/plate, 4 μg of Notch1 expression plasmid/plate, and 200 ng of SV40 Renilla vector/plate. DL4- and N1-HeLa cells were detached from the plate by using 0.5 mM EDTA (1×PBS). The both cell populations were counted and mixed in 1:1 ratio (5,000:5,000 cells/well in a 384 well plate) and dispensed into 384 well plates (white, clear bottom, Corning) using multidrop Combi plate dispenser. The assay plates were pre-dispensed (using automated Biomek 3000 liquid handler) with chemical compound libraries (Microsource NIMDS, Maybridge Hitfinder and Prestwick) to give a final concentration of 10 μM. The final assay volume was 22 μls. Twenty-four hours later, growth media was aspirated and cells were lysed with 1× Passive lysis buffer for 10 minutes at room temperature. Luciferase activity was measured using Luciferase Assay Reagent II and Renilla values were determined by using Stop and Glow reagent (Dual luciferase assay system, Cat #E1980, Promega). Luciferase and renilla readouts were taken using Tecan® F500 (Tecan) multiplate reader. All the liquid handling steps (aspiration of the medium, dispensing of Passive lysis buffer, Luciferase Assay Reagent II and Stop and Glow reagents) were performed using ELF406 liquid handler.
In order to identify novel modulators of the Notch pathway, Applicants have established a coculture assay in which DL4 ligand expressing HeLa cells were cultured with N1 HeLa cells, thereby activating the Notch pathway. The use of a DL4 and N1 HeLa cell coculture system mimics physiological conditions of cell-cell communication between ligand and receptor expressing cells. The in vitro generation of a controlled receptor-ligand assay system allowed Applicants to modify and monitor the Notch signal intensity by γ-secretase inhibitors. […]

Compound | ability to block Notch pathway activation in coculture assay (screening of derivatives) | Notch inhibitory activity of derivatives compared to parental compound I3
CCCCc1ccc(Oc2ccc(N)cn2)cc1 [I3-D, 6-(4-Butylphenoxy)pyridin-3-amine] | ability to block Notch pathway activation in coculture assay | –
Nc1ccc(Oc2ccc(C3CCCCC3)cc2)cc1 [I3-F, 4-(4-cyclohexylphenoxy)aniline] | ability to block Notch pathway activation in coculture assay | appear to have enhanced activity
Nc1ccc(Oc2ccc(C3CCCCC3)cc2)c(F)c1 [I3-L, 4-(4-cyclohexylphenoxy)-3-fluoroaniline] | ability to block Notch pathway activation in coculture assay | –
CC(C)c1ccc(Oc2ccc(N)cc2)cc1 [I3-J, 4-(4-isopropylphenoxy)aniline] | ability to block Notch pathway activation in coculture assay | –
CC(C)(C)c1ccc(Oc2ccc(N)cc2F)cc1 [I3-I, 4-(4-(tert-butyl)phenoxy)-3-fluoroaniline] | ability to block Notch pathway activation in coculture assay | appear to have enhanced activity
Nc1ccc(Oc2ccc(C34CC5CC(CC(C5)C3)C4)cc2)c(F)c1 [I3-P, 4-(4-((3r,5r,7r)-adamantan-1-yl)phenoxy)-3-fluoroaniline] | ability to block Notch pathway activation in coculture assay | –
CCC(C)(C)c1ccc(Oc2ccc(N)cn2)cc1 [I3-B, 6-(4-(tert-Pentyl)phenoxy)pyridin-3-amine] | ability to block Notch pathway activation in coculture assay | block Notch signalling to comparable levels to parental compound I3; also recorded: exhibit anti-Notch activity comparable to 6-(4-Tert-Butylphenoxy)Pyridin-3-Amine (I3)
CCC(C)(C)c1ccc(Oc2ccc(N)cc2F)cc1 [I3-M, 3-fluoro-4-(4-(tert-pentyl)phenoxy)aniline] | ability to block Notch pathway activation in coculture assay | block Notch signalling to comparable levels to parental compound I3; also recorded: exhibit anti-Notch activity comparable to 6-(4-Tert-Butylphenoxy)Pyridin-3-Amine (I3)
Nc1ccc(Oc2ccc(C34CC5CC(CC(C5)C3)C4)cc2)cc1 [I3-O, 4-(4-((3r,5r,7r)-adamantan-1-yl)phenoxy)aniline] | ability to block Notch pathway activation in coculture assay | –
Nc1ccc(Oc2ccc(C34CC5CC(CC(C5)C3)C4)cc2)nc1 [I3-G, 6-(4-((3r,5r,7r)-adamantan-1-yl)phenoxy)pyridin-3-amine] | ability to block Notch pathway activation in coculture assay | block Notch signalling to comparable levels to parental compound I3; also recorded: exhibit anti-Notch activity comparable to 6-(4-Tert-Butylphenoxy)Pyridin-3-Amine (I3)
CCCC(C)(C)c1ccc(Oc2ccc(N)cn2)cc1 [I3-N, 6-(4-(2-methylpentan-2-yl)phenoxy)pyridin-3-amine] | ability to block Notch pathway activation in coculture assay | block Notch signalling to comparable levels to parental compound I3; also recorded: exhibit anti-Notch activity comparable to 6-(4-Tert-Butylphenoxy)Pyridin-3-Amine (I3)
CC(C)(C)CC(C)(C)c1ccc(Oc2ccc(N)cn2)cc1 [I3-K, 6-(4-(2,4,4-trimethylpentan-2-yl)phenoxy)pyridin-3-amine] | ability to block Notch pathway activation in coculture assay | –
CC(C)(C)c1cccc(Oc2ccc(N)cn2)c1 [I3-H, 6-(3-(tert-butyl)phenoxy)pyridin-3-amine] | ability to block Notch pathway activation in coculture assay | block Notch signalling to comparable levels to parental compound I3; also recorded: exhibit anti-Notch activity comparable to 6-(4-Tert-Butylphenoxy)Pyridin-3-Amine (I3)
CCC(C)(C)c1ccc(Oc2ccc(N)cc2)cc1 [I3-E, 4-(4-(tert-pentyl)phenoxy)aniline] | ability to block Notch pathway activation in coculture assay | block Notch signalling to comparable levels to parental compound I3; also recorded: exhibit anti-Notch activity comparable to 6-(4-Tert-Butylphenoxy)Pyridin-3-Amine (I3)
CC(C)(C)c1ccc(Oc2ccc(N)cc2)cc1 [I3-C, 4-(4-(tert-butyl)phenoxy)aniline] | ability to block Notch pathway activation in coculture assay | block Notch signalling to comparable levels to parental compound I3; also recorded: exhibit anti-Notch activity comparable to 6-(4-Tert-Butylphenoxy)Pyridin-3-Amine (I3)
Nc1ccc(Oc2ccc(C3CCCCC3)cc2)nc1 [I3-A, 6-(4-cyclohexylphenoxy)pyridin-3-amine] | ability to block Notch pathway activation in coculture assay | block Notch signalling to comparable levels to parental compound I3; also recorded: exhibit anti-Notch activity comparable to 6-(4-Tert-Butylphenoxy)Pyridin-3-Amine (I3)
